Results: patent publication EP0908457B1, “3-(1,2-benzisothiazol- and isoxazol-5-Y1)-2,4(1H,3H)-pyrimidinedione or thione and 3-(1,2-benzisothiazol- and isoxazol-5-y1)-4(3H)-pyrimidinone or thione herbicidal agents” (BASF AKTIENGESELLSCHAFT, priority 1997, dated 1999)

Tests used:
Sagittaria pygmaea, L. = assay: Preemergence weed control under flooded paddy conditions, SAGPY (Arrowhead (Pygmaea)); format: in vivo; settings: preemergence, flooded paddy, rated three to four weeks after treatment
[1] = system: Monochoria vaginalis, Presl.; assay: Preemergence weed control under flooded paddy conditions, MOOVA (Monochoria); format: in vivo; settings: preemergence, flooded paddy, rated three to four weeks after treatment
Cyperus iria = assay: Preemergence weed control under flooded paddy conditions, CYPIR (Rice Flatsedge); format: in vivo; settings: preemergence, flooded paddy, rated three to four weeks after treatment
[2] = system: Echinochloa oryzoides (Ard.) Fritsch.; assay: Preemergence weed control under flooded paddy conditions, ECHORC (Watergrass (Calif.)); format: in vivo; settings: preemergence, flooded paddy, rated three to four weeks after treatment
[3] = system: Cyperus serotinus, Rottb.; assay: Preemergence weed control under flooded paddy conditions, CYPSE (Flatsedge); format: in vivo; settings: preemergence, rated three to four weeks after treatment
[4] = system: Oryza sativa, (L.) Tebonnet; assay: Rice tolerance to post-transplant applications under flooded paddy conditions (Example 187), ORYSAT (Rice, Tebonnet); settings: rated three to four weeks after treatment
Further: meaning of each grade not given here.

Row | SMILES | herbicidal effect rating, SAGPY (Sagittaria pygmaea, L.; Rate 0.0320 kg/ha) | herbicidal effect rating, SAGPY (Sagittaria pygmaea, L.; Rate 0.0620 kg/ha) | herbicidal effect rating, SAGPY (Sagittaria pygmaea, L.; Rate 0.1250 kg/ha) | herbicidal effect rating, SAGPY (Sagittaria pygmaea, L.; Rate 0.2500 kg/ha) | herbicidal effect rating, MOOVA ([1]; Rate 0.0320 kg/ha) | herbicidal effect rating, MOOVA ([1]; Rate 0.0620 kg/ha) | herbicidal effect rating, MOOVA ([1]; Rate 0.1250 kg/ha) | herbicidal effect rating, MOOVA ([1]; Rate 0.2500 kg/ha) | herbicidal effect rating, CYPIR (Cyperus iria; Rate 0.0320 kg/ha) | herbicidal effect rating, CYPIR (Cyperus iria; Rate 0.0620 kg/ha) | herbicidal effect rating, CYPIR (Cyperus iria; Rate 0.1250 kg/ha) | herbicidal effect rating, CYPIR (Cyperus iria; Rate 0.2500 kg/ha) | herbicidal effect rating, ECHORC ([2]; Rate 0.0320 kg/ha) | herbicidal effect rating, ECHORC ([2]; Rate 0.0620 kg/ha) | herbicidal effect rating, ECHORC ([2]; Rate 0.1250 kg/ha) | herbicidal effect rating, ECHORC ([2]; Rate 0.2500 kg/ha) | herbicidal effect rating, CYPSE ([3]; Rate 0.0320 kg/ha) | herbicidal effect rating, CYPSE ([3]; Rate 0.0620 kg/ha) | herbicidal effect rating, CYPSE ([3]; Rate 0.1250 kg/ha) | herbicidal effect rating, CYPSE ([3]; Rate 0.2500 kg/ha) | other results
1 | Cc1nsc2cc(F)c(-n3c(=O)cc(C(F)(F)F)n(C)c3=O)cc12 [Example 366, 2,4(1H,3H)-Pyrimidinedione, 3-(6-fluoro-3-methyl-1,2-benzisothiazol-5-yl)-1-methyl-6-(trifluoromethyl)-] | 7.0 | 8.0 | 9.0 | 9.0 | 9.0 | 9.0 | 9.0 | 9.0 | 8.5 | 9.0 | 9.0 | 9.0 | 8.0 | 8.5 | 9.0 | 9.0 | 8.0 | 8.0 | 9.0 | 9.0 | herbicidal effect rating, SAGPY (Sagittaria pygmaea, L.; Rate 0.5000 kg/ha): 9.0; herbicidal effect rating, MOOVA ([1]; Rate 0.5000 kg/ha): 9.0; herbicidal effect rating, CYPIR (Cyperus iria; Rate 0.5000 kg/ha): 9.0; herbicidal effect rating, ECHORC ([2]; Rate 0.5000 kg/ha): 9.0; herbicidal effect rating, CYPSE ([3]; Rate 0.5000 kg/ha): 9.0; herbicidal effect rating ORYSAT ([4]; Rate 0.0320 kg/ha): 7.5; herbicidal effect rating ORYSAT ([4]; Rate 0.0620 kg/ha): 9.0; herbicidal effect rating ORYSAT ([4]; Rate 0.1250 kg/ha): 9.0; herbicidal effect rating ORYSAT ([4]; Rate 0.2500 kg/ha): 9.0; herbicidal effect rating ORYSAT ([4]; Rate 0.5000 kg/ha): 9.0
2 | CN(C(=O)c1nsc2ccc(-n3c(=O)cc(C(F)(F)F)n(C)c3=O)cc12)S(C)(=O)=O [Example 367, 1,2-Benzisothiazole-3-carboxamide, 5-[3,6-dihydro-3-methyl-2,6-dioxo-4-(trifluoromethyl)-1(2H)-pyrimidinyl]-N-methyl-N-(methylsulfonyl)-] | 0.0 | 2.0 | 5.0 | 9.0 | 9.0 | 9.0 | 9.0 | 9.0 | 0.0 | 5.0 | 7.0 | 9.0 | 0.0 | 0.0 | 3.0 | 6.0 | 0.0 | 9.0 | 9.0 | 9.0 | herbicidal effect rating ORYSAT ([4]; Rate 0.0320 kg/ha): 0.0; herbicidal effect rating ORYSAT ([4]; Rate 0.0620 kg/ha): 0.0; herbicidal effect rating ORYSAT ([4]; Rate 0.1250 kg/ha): 5.0; herbicidal effect rating ORYSAT ([4]; Rate 0.2500 kg/ha): 6.0
3 | Cn1c(C(F)(F)F)cc(=O)n(-c2ccc3snc(COC(=O)Cc4ccccc4)c3c2)c1=O [Example 369, 2,4(1H,3H)-Pyrimidinedione, 3-[3-(hydroxymethyl)-1,2-benzisothiazol-5-yl]-1-methyl-6-(trifluoromethyl)-, phenylacetate (ester)] | 0.0 | 6.0 | 9.0 | 9.0 | 9.0 | 9.0 | 9.0 | 9.0 | 7.0 | 7.0 | 9.0 | 9.0 | 3.0 | 3.0 | 6.0 | 8.0 | 0.0 | 3.0 | 4.0 | 9.0 | herbicidal effect rating ORYSAT ([4]; Rate 0.0320 kg/ha): 6.0; herbicidal effect rating ORYSAT ([4]; Rate 0.0620 kg/ha): 6.0; herbicidal effect rating ORYSAT ([4]; Rate 0.1250 kg/ha): 7.0; herbicidal effect rating ORYSAT ([4]; Rate 0.2500 kg/ha): 7.0
